Source: ChEMBL document CHEMBL5154805, “From tryptophan-based amides to tertiary amines: Optimization of a butyrylcholinesterase inhibitor series” (Eur J Med Chem, 2022)

Tests used:
Acetylcholinesterase [1] = target: T1, Acetylcholinesterase (Homo sapiens, UniProt P22303); assay: Inhibition of recombinant human AChE assessed as residual activity at 3 uM using acetylthiocholine iodide as substrate preincubated for 1 to 30 mins followed by substrate addition by Ellman's method relative to control; conditions: time 1-30 min
Cholinesterase [2] = target: T2, Cholinesterase (Homo sapiens, UniProt P06276)
Description: Inhibition of recombinant human BChE using butyrylthiocholine iodide as substrate preincubated for 1 to 30 mins followed by substrate addition by Ellman's method

Acetylcholinesterase [3] = target: T1, Acetylcholinesterase; assay: Inhibition of recombinant human AChE using acetylthiocholine iodide as substrate preincubated for 1 to 30 mins followed by substrate addition by Ellman's method
Acetylcholinesterase [4] = target: T3, Acetylcholinesterase (Mus musculus, UniProt P21836); assay: Inhibition of mouse recombinant AChE assessed as reduction in cholinesterase activity using acetylthiocholine iodide as substrate preincubated for 1 to 30 mins followed by substrate addition by Ellman's method
T3 sequence (P21836 whole entry): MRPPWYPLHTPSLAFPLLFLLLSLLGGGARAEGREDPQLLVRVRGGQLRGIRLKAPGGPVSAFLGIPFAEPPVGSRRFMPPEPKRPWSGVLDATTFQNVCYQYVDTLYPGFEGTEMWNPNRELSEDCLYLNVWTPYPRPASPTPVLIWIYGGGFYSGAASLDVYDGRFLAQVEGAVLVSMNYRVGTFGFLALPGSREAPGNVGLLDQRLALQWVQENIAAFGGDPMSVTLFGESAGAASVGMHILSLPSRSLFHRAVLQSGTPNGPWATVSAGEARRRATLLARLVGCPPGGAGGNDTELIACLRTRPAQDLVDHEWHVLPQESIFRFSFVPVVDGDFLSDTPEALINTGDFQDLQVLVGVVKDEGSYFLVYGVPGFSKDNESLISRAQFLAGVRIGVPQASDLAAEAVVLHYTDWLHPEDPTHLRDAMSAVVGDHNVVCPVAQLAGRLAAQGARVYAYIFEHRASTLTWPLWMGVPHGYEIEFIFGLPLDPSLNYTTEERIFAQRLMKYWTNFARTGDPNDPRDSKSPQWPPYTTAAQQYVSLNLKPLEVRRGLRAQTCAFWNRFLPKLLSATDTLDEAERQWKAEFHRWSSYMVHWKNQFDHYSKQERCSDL

[5] = target: Cholinesterases; ACHE & BCHE (Homo sapiens) (UniProt P06276+P22303); assay: Selectivity ratio of IC50 for recombinant human AChE to IC50 for recombinant human BChE; format: protein assay
Acetylcholinesterase [6] = target: T1, Acetylcholinesterase; assay: Inhibition of recombinant human AChE assessed as residual activity at 100 uM using acetylthiocholine iodide as substrate preincubated for 1 to 30 mins followed by substrate addition by Ellman's method relative to control; conditions: time 1-30 min
Cholinesterase [7] = target: T2, Cholinesterase; remark: listed apart in the source
Description: Binding affinity to human recombinant BChE assessed as decarbamoylation rate by measuring half life

T2 sequence (P06276 whole entry): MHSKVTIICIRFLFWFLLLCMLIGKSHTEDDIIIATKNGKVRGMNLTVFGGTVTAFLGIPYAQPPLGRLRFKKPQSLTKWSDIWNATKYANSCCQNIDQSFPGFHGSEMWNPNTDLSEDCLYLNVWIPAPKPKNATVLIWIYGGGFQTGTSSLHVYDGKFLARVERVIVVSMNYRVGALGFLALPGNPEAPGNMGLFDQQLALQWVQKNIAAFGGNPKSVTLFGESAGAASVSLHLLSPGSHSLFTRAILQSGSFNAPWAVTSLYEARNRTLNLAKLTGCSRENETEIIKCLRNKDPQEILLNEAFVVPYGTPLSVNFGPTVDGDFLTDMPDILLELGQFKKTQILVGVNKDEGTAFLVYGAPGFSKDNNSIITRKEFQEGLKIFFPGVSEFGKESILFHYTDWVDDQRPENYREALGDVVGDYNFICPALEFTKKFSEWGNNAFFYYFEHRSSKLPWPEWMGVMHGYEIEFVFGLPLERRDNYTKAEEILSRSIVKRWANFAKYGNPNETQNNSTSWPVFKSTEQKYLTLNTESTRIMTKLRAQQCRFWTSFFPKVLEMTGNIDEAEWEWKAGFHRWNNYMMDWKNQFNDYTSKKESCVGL
T1 sequence (P22303 whole entry): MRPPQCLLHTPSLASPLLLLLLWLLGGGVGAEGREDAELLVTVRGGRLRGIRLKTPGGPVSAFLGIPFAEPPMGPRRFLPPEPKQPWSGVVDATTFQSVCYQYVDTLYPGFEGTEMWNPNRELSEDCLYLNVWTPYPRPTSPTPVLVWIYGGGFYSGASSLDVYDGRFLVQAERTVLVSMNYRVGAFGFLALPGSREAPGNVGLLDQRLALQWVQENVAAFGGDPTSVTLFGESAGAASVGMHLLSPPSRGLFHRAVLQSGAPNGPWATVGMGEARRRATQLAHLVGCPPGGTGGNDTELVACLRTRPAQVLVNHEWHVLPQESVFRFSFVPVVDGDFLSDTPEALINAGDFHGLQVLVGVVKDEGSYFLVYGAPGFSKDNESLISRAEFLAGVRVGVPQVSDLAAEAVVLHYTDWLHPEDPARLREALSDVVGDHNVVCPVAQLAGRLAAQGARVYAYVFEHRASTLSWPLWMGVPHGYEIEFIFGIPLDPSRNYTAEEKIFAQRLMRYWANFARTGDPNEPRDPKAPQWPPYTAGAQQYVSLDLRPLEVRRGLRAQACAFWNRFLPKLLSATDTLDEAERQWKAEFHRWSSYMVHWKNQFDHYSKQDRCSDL
Sequence of Cholinesterases; ACHE & BCHE (Homo sapiens) (P06276 whole entry, looked up): as the sequence (P06276 whole entry) above
Sequence of Cholinesterases; ACHE & BCHE (Homo sapiens) (P22303 whole entry, looked up): as the sequence (P22303 whole entry) above

Structure (SMILES)	Activity (Acetylcholinesterase [1])	IC50 (Cholinesterase [2])	other results
c1ccc2c(CCNCCC3CCCCCC3)c[nH]c2c1	> 50%	31.5 nM	–
CCCCN(CCC1CCCCCC1)Cc1cc(OC(=O)N(C)C)c2ccccc2c1	> 50%	2.4 nM	–
CN(CCC1CCN(Cc2ccccc2)CC1)Cc1c[nH]c2ccccc12	> 50%	1710 nM	IC50 (Acetylcholinesterase [3]): 33900 nM
CCCCN(CCC1CCCCCC1)Cc1c[nH]c2cc(Br)ccc12	> 50%	3.6 nM	–
CCCCN(CCc1c(-c2ccccc2O)[nH]c2ccccc12)CCC1CCCCCC1	> 50%	16.8 nM	–
CCCCN(CCCc1c[nH]c2ccccc12)CCC1CCCCCC1	> 50%	2.4 nM	–
CCCCN(CCC1CCCCCC1)Cc1cc2ccccc2cc1O	> 50%	33.7 nM	IC50 (Acetylcholinesterase [3]): 18600 nM
CCCCN(CCC1CCCCCC1)Cc1ccc(OC(=O)N(C)C)c2ccccc12	> 50%	1.9 nM	IC50 (Acetylcholinesterase [3]): 101 nM
CCCCN1CCN(CCCC2CCCCCC2)C[C@@H]1Cc1c[nH]c2ccccc12	> 50%	5 nM	IC50 (Acetylcholinesterase [4]): 10300 nM; Ratio IC50 [5]: > 1000
CN1CCN(CCC2CCCCCC2)C[C@@H]1Cc1c[nH]c2ccccc12	> 50%	10.5 nM	Activity (Acetylcholinesterase [6]): 39%
CCCCN(CCCc1c[nH]c2ccccc12)CCC1CCC(N(C)C)CC1 (stereo in doubt; 33a) [listing 1 of 2 here]	> 50%	–	–
CCCCN(CCCc1c[nH]c2ccccc12)CCC1CCC(N(C)C)CC1 (stereo in doubt; 33a) [listing 2 of 2 here]	–	205 nM	–
CCCCN(CCc1c[nH]c2c(OC(=O)C(C)C)cccc12)CCC1CCCCCC1	> 50%	–	IC50 (Acetylcholinesterase [3]): 1370 nM; T1/2 (Cholinesterase [7]): 15.2 h
CCCCN(CCC1CCCCCC1)Cc1c[nH]c2cc(C#N)ccc12	> 50%	83.7 nM	–
CN(C)c1ccc(/C=C/CN(CCCc2c[nH]c3ccccc23)CCC2CCCCCC2)cc1	> 50%	4.6 nM	Activity (Acetylcholinesterase [6]): 54%
CCCC[N+](C)(CCCc1c[nH]c2ccccc12)CCC1CCCCCC1 (centres undefined)	> 50%	2.3 nM	IC50 (Acetylcholinesterase [3]): 23200 nM
CCCCN(CCC1CCCCCC1)Cc1cn(OC(=O)N(C)C)c2ccccc12	> 50%	133 nM	IC50 (Acetylcholinesterase [3]): 152 nM
CN(CCC1CCCCCC1)Cc1c(-c2nnn[nH]2)[nH]c2ccccc12	> 50%	929 nM	–
CCCCN(CCCc1cccc2ccccc12)CCC1CCCCCC1	> 50%	1.9 nM	–
CCCCN(CCCc1c[nH]c2ccccc12)CCC1CCN(Cc2ccccc2)CC1	> 50%	29.3 nM	IC50 (Acetylcholinesterase [3]): 7840 nM
CN(CCC1CCCCCC1)Cc1cccc2[nH]ccc12	> 50%	349 nM	–
CCCCN(CCc1cn(C(=O)N(C)C)c2ccccc12)CCC1CCCCCC1	> 50%	0.87 nM	–
CCCCN[C@H](CNCCC1CCCCCC1)Cc1c[nH]c2ccccc12	> 50%	10.1 nM	IC50 (Acetylcholinesterase [4]): 12400 nM
CN(C)C1CCC(CCN(CCCc2c[nH]c3ccccc23)CCC2CCCCCC2)CC1 (stereo in doubt; 32a) [listing 1 of 2 here]	> 50%	–	–
CCCCN(CCc1c[nH]c2ccccc12)CCC1CCCCCC1	> 50%	5 nM	–
CCCCN1CN(CCC2CCCCCC2)C[C@@H]1Cc1c[nH]c2ccccc12	> 50%	8.7 nM	IC50 (Acetylcholinesterase [4]): 11000 nM; Ratio IC50 [5]: > 1000
CCCCN(CCC1CCCCCC1)Cc1cc(O)c2ccccc2c1	> 50%	4.7 nM	–

Structure (SMILES)	Activity (Acetylcholinesterase [1])	IC50 (Cholinesterase [2])	other results
CN(C)C1CCC(CCN(CCCc2c[nH]c3ccccc23)CCC2CCCCCC2)CC1 (stereo in doubt; 32b) [listing 1 of 2 here]	> 50%	–	–
CCCCN(CCCc1c[nH]c2ccc(F)cc12)CCC1CCCCCC1	> 50%	6 nM	–
CCCCN(CCc1c[nH]c2c(O)cccc12)CCC1CCCCCC1	> 50%	–	Activity (Acetylcholinesterase [6]): 69%
CCCCN(CCOc1cccc2c(OC(=O)N(C)C)cccc12)CCC1CCCCCC1	> 50%	5.8 nM	IC50 (Acetylcholinesterase [3]): 47.9 nM
CN(C)C1CCC(CCN(CCCc2c[nH]c3ccccc23)CCC2CCCCCC2)CC1 (stereo in doubt; 32a) [listing 2 of 2 here]	–	1.9 nM	IC50 (Acetylcholinesterase [3]): 12600 nM
CCCCN(CCC1CCCCCC1)Cc1c[nH]c2ncccc12	> 50%	83 nM	Activity (Acetylcholinesterase [6]): 57%
c1ccc2c(CCCN(CCC3CCCCCC3)CCC3CCCCC3)c[nH]c2c1	> 50%	4.9 nM	–
CCCCN(CCC1CCCCCC1)Cc1cc2ccccc2cc1OC(=O)N(C)C	> 50%	2.2 nM	–
CCCCN(CCC1CCCCCC1)CCC1CCc2ccccc21 (centres undefined)	> 50%	6.5 nM	–
CCCCN(CCc1c[nH]c2ccc(OC(=O)N(C)C)cc12)CCC1CCCCCC1	> 50%	6.9 nM	–
CCCCN(C)[C@@H](Cc1c[nH]c2ccccc12)CN(C)CCC1CCCCCC1	> 50%	3 nM	IC50 (Acetylcholinesterase [4]): 23400 nM
CCCC[N+]([O-])(CCc1c[nH]c2ccccc12)CCC1CCCCCC1 (centres undefined)	> 50%	107 nM	Activity (Acetylcholinesterase [6]): 86%
CN(C)C1CCC(CCN(CCCc2c[nH]c3ccccc23)CCC2CCCCCC2)CC1 (stereo in doubt; 32b) [listing 2 of 2 here]	–	4.1 nM	IC50 (Acetylcholinesterase [3]): 8570 nM
CCCCN(CCCc1c[nH]c2ccccc12)CCC1CCC(N(C)C)CC1 (stereo in doubt; 33b) [listing 1 of 2 here]	> 50%	–	–
CN(CCc1c[nH]c2ccccc12)CCC1CCCCCC1	> 50%	–	–
CCCCN(CCCC1CCNc2ccccc21)CCC1CCCCCC1 (centres undefined)	> 50%	54.8 nM	Activity (Acetylcholinesterase [6]): 65%
CN(CCC1CCCCCC1)Cc1c[nH]c2ccccc12	> 50%	60.4 nM	IC50 (Acetylcholinesterase [3]): 25200 nM
CCCCN(CCCc1c[nH]c2ccccc12)CCC1CCC(N(C)C)CC1 (stereo in doubt; 33b) [listing 2 of 2 here]	–	214 nM	–
CCCCN(CCOc1ccc2ccc(OC(=O)N(C)C)cc2c1)CCC1CCCCCC1	> 50%	11.7 nM	–
CCCCN(CCc1c(-c2ccccc2OC(=O)N(C)C)[nH]c2ccccc12)CCC1CCCCCC1	> 50%	5.4 nM	–
c1ccc2c(c1)CCC2CCN(CCCc1c[nH]c2ccccc12)CCC1CCCCCC1 (centres undefined)	> 50%	6.3 nM	–
CCCCN(CCCc1ccc2ccccc2c1)CCC1CCCCCC1	> 50%	5.1 nM	Activity (Acetylcholinesterase [6]): 56%
CCCCN(CCc1c[nH]c2ccc(O)cc12)CCC1CCCCCC1	> 50%	33.5 nM	Activity (Acetylcholinesterase [6]): 79%
CCCCN(CCc1c[nH]c2cc(O)ccc12)CCC1CCCCCC1	> 50%	–	IC50 (Acetylcholinesterase [3]): 70600 nM
CCCCN(CCCc1cc2ccccc2[nH]1)CCC1CCCCCC1	> 50%	4.7 nM	Activity (Acetylcholinesterase [6]): 74%
CCCCN(CCC1CCCCCC1)Cc1c[nH]c2ccccc12	> 50%	13.3 nM	–
CCCCN(CCc1c[nH]c2cc(OC(=O)N(C)C)ccc12)CCC1CCCCCC1	> 50%	–	T1/2 (Cholinesterase [7]): 14.8 h
